Test results published in patent US10717718B2 (priority 2015, dated 2020).
Entries after “also recorded” stand apart in the source; their conditions may differ.

Columns and labels:
Type in all cases: cell-based
[1] = tested on: Legionella pneumophila serogroup 1; conditions: 10 mM compound, 37° C., 24 hours, click with CR110-CCH, confocal microscopy
Escherichia coli O13 = tested on: Escherichia coli O13
Escherichia coli K12 = conditions: E. coli K12; 10 mM compound, 37° C., 18 hours; click with CR110-CCH; confocal microscopy
[2] = tested on: Legionella gormanii (Fluoribacter gormanii)

SMILES | detection / labelling signal of bacteria [1] | detection / labelling signal of bacteria (Escherichia coli O13) | detection / labelling signal of bacteria (Escherichia coli K12) | detection / labelling signal of bacteria [2]
C=C(C[C@@H](O)[C@H]1OC(C)(C)O[C@@H]1[C@H](O)CN=[N+]=[N-])C(=O)OCC [Compound 8a, ethyl (4R)-4-{(4R,5R)-5-[(R)-2-azido-1-hydroxyethyl]-2,2-dimethyl-1,3-dioxolan-4-yl)-4-hydroxy-2-methylenebutanoate] | detected; also recorded: clear labelling signal | detected; also recorded: clear labelling signal | detected; also recorded: clear labelling signal | detected; also recorded: clear labelling signal
C=C(C[C@H](O)[C@H]1OC(C)(C)O[C@@H]1[C@H](O)CN=[N+]=[N-])C(=O)OCC [Compound 8b, ethyl (4S)-4-{(4R,5R)-5-[(R)-2-azido-1-hydroxyethyl]-2,2-dimethyl-1,3-dioxolan-4-yl)-4-hydroxy-2-methylenebutanoate] | detected; also recorded: clear labelling signal | detected; also recorded: clear labelling signal | detected; also recorded: clear labelling signal | detected; also recorded: clear labelling signal
